Test results reported in patent publication US20210260069A1, “IRE1a INHIBITOR IN COMBINATION WITH CANCER [sequence] AGENT FOR CANCER TREATMENT” (Fosun Orinove PharmaTech, Inc., priority 2018, published 2021).

What was measured:
Hep3B-Luc cells = experiment: Orthotopic Hep3B-luc human liver xenograft model (Example 22); format: in vivo, female BALB/c nude mice
Protocol: The tumor was inoculated by injecting Hep3B-Luc cells (established by WuXi AppTec R&D center) mixed with BD Matrigel in 20 μl (PBS:Matrigel=1:1) into the left lobe of the liver. […] Sorafenib was formulated with Cremophor® EL/ethanol (1:1) and purified water to form a solution of 9 mg/ml. […] Tumor weight was measured at the termination of study. T/Cweight value (in percent) was calculated using the formula: T/Cweight%=Tweight/Cweight×100%, while Tweight and Cweight were the mean tumor weights of the treated and the vehicle control groups, respectively.

[1] = tested on: human glioblastoma U-87 MG tumor cells; experiment: U-87 MG glioblastoma xenograft (Example 19); format: in vivo, female NCr nu/nu mice
Protocol: Orin 1001 was administered by oral gavage in a xenograft mouse model using female NCr nu/nu mice injected subcutaneously with human glioblastoma U-87 MG tumor cells, a glioblastoma multiforme (GBM) cell line. Animals were assigned to 4 groups (n=6/group); Vehicle control administered by oral gavage for 28 days, Orin 1001 administered via oral gavage at 300 mg/kg/day for 28 consecutive days, paclitaxel administered weekly by iv at 15 mg/kg, or Orin 1001 administered in combination with paclitaxel.
The percent tumor growth delay was calculated using the following equation: TGD (%)=[T-C/C]×100; where T-C is the difference in time to tumor endpoint from Treated (T) and Control (C).
The time to tumor endpoint (TTE) for each animal was further calculated using the following equation: TTE (days)=log 10 (endpoint volume, mm^3)-b/m, where b is the intercept and m is the slope of the line obtained by linear regression of the log-transformed tumor growth data set.

7-day toxicity study = format: in vivo; settings: cynomolgus monkey
[2] = Oral bioavailability test, mouse; settings: in vivo, 10 mg/kg dose
Protocol: All PK experiments are standard tests that performed in either WuXi PharmaTech or Charels River Laboratory. 4315 and 4485 (Orin 1001) were dosed PO as a suspension in 1% microcellulose (Sigma) and 50% Sucrouse (Sigma).

[3] = tested on: human breast adenocarcinoma MDA-MB231 tumor cells; format: in vivo
Protocol: Orin 1001 was administered by oral gavage in combination with paclitaxel in a xenograft mouse model using female NCr nu/nu mice injected subcutaneously with human breast adenocarcinoma MDA-MB231 tumor cells. To evaluate the effect of Orin 1001 in combination with paclitaxel on early, mid or late stage tumor growth, dosing was initiated either on Day 1 (when tumors reached 225-250 mm^3), Day 14 or Day 28 of tumor growth. Orin 1001 was administered via oral gavage at 300 mg/kg/day in combination with paclitaxel at 10 mg/kg iv, weekly (n=10/group) for up to 60 days.

human liver HUH-7 cells = experiment: Subcutaneous HUH-7 liver cancer xenograft model, survival (Example 23); format: in vivo, Female BALB/c nude mice
Protocol: Female BALB/c nude mice were subcutaneously inoculated with human liver HUH-7 cells (from JCRB) to establish a xenograft model of liver cancer. The scheduled administration cycle was 28 days. Animals were assigned into 4 groups (n=10/group): one vehicle group, two single treatment groups (Orin 1001 administered at 80 mg/kg/day q.d. for 28 days; Sorafenib administered following a dose regimen of 18.25 mg/kg/day q.d. for 5 days, then 25 mg/kg/day q.d. for 3 days, and then 45 mg/kg/day q.d. for 20 days, consecutively) and one combination treatment group (sorafenib administered following a dose regimen of 18.25 mg/kg/day q.d. for 5 days, then 25 mg/kg/day q.d. for 3 days, and then 45 mg/kg/day q.d. for 20 days, consecutively, whilst combined with Orin 1001 administered q.d. at a dose of 80 mg/kg/day for 28 days). All vehicle or administration treatments were given via oral gavage. Sorafenib was formulated with Kolliphor® EL/ethanol (2/1, v/v) and water. Orin 1001 was dissolved with cellulose microcrystalline and sucrose in purified water to form as suspension. The mice were euthanized if a tumor volume achieved over 2000 mm^3. Otherwise the experiment ended on the 6th day after the last administration.

[4] = tested on: human ovarian carcinoma A2780 tumor cells; experiment: A2780 ovarian carcinoma xenograft (Example 18); format: in vivo, female NCr nu/nu mice; settings: Orin 1001 300 mg/kg/day oral 28 days; paclitaxel 15 mg/kg iv weekly; endpoint 2000 mm^3 or Day 60
Protocol: Orin 1001 was administered by oral gavage in a xenograft mouse model using female NCr nu/nu mice injected subcutaneously with human ovarian carcinoma A2780 tumor cells. Animals were assigned to 4 groups (n=6/group); Vehicle control administered by oral gavage for 28 days, Orin 1001 administered via oral gavage at 300 mg/kg/day for 28 consecutive days, paclitaxel administered weekly by iv at 15 mg/kg, or Orin 1001 administered in combination with paclitaxel.
The percent tumor growth delay was calculated using the following equation: TGD (%)=[T-C/C]×100, where T-C is the difference in time to tumor endpoint from Treated (T) and Control (C).

[5] = Orin 1001 300 mg/kg/day oral 28 days, paclitaxel 15 mg/kg iv weekly, endpoint 2000 mm^3 or Day 60

## COc1cc2c(C)c(CC(=O)N3CCOCC3)c(=O)oc2c(C=O)c1O [Orin 1001]
Hep3B-Luc cells; mean tumor weight treated / vehicle control, day 28
  T/Cweight (%): 56%
Hep3B-Luc cells; oral gavage 28 consecutive days, Orin 1001 80 mg/kg/day, sorafenib 45 mg/kg/day
  Tumor Weight (g) at day 28: 2.68 ± 1.69 g
[1]; [5]
  percent tumor growth delay (TGD): 13%
  time to tumor endpoint (TTE): 29.3 days
[1]; each agent alone
  tumor delay effect over the control: not very significant
7-day toxicity study
  5-fold safety margin: 750 mg/kg/day
7-day toxicity study; in vivo, read-out: No Observable Adverse Effect Level (NOAEL)
  NOAEL at 7 day: 150 mg/kg/day
[2]
  bioavailability: 63%
[3]; 300 mg/kg/day oral gavage with paclitaxel 10 mg/kg iv weekly, up to 60 days
  clinical signs of toxicity: no clinical signs of toxicity
[3]; up to 60 consecutive days
  tolerability of extended oral dosing: well tolerated
Human liver HUH-7 cells; Orin 1001 80 mg/kg/day q.d. 28 days, sorafenib 18.25/25/45 mg/kg, Kaplan-Meier
  Median Survival Time (MST): 20 days
Human liver HUH-7 cells; versus vehicle group (group 1)
  ILS (%) (increase of life span): 0%
[4]
  percent tumor growth delay (TGD): 29%
